System: 3T3L-1 mouse pre-adipocyte cells
Experiment: Brown adipose marker expression in differentiating 3T3L-1 preadipocytes
Type: cell-based
Method: A. 3T3L-1 mouse preadipocyte cells in 6 well plates were allowed to reach full confluence. Two days following confluence (designated as day 0), the growth medium was replaced with differentiation medium (DM). After two days of incubation in DM, this medium was replaced with insulin medium (Ins) and the cells were incubated in Ins for 2 days and then the insulin medium was replaced with growth medium (GM) and the cells were cultured for a total of 10 days (starting from day 0). The cells were treated with vehicle (0.1% DMSO) or ULMA (10 nM in 0.1% DMSO) on day 0 and the total treatment duration was 10 days. In all cases, medium was replaced with fresh corresponding medium every day containing vehicle (0.1% DMSO) or 10 nM ULMA (in DMSO; final DMSO concentration in all wells 0.1% vol/vol). After a total of 10 days from day 0, cells were washed in cold PBS and RNA was extracted using trizol reagent using standard procedure following which cDNA synthesis was done and UCP-1, UCP-2, PGC-1α and PRDM16 expression were determined using QRT-PCR, normalized with Beta-actin mRNA and plotted as fold induction over vehicle treated control. Data is mean±SEM of three independent experiments performed in triplicates. **p<0.01 as determined by two tailed unpaired student's t-test.
C. Cells from identical set of experiments as described in FIGS. 5A and 5B or human SVFs prepared by collagenase digestions were analyzed by western blot analysis for determination of UCP-1, UCP-2 and PGC-1α protein level. Beta-actin was used as a loading control. Data is representative of three independent experiments.
Adiponectin has previously been described to enhance mitochondrial function in adipose tissues and induces its thermogenic potential and therefore causes a conversion towards brown adipose phenotype characterized by an increase in UCPs, in particular UCP-1 (I. B. Bauche, S. A. E. Mkadem, A-M. Pottier, M. Senou, M-C. Many, R. Rersohazy, L. Penicaud, N. Maeda; T. Funahashi, S. M. Brichard. Endocrinology 148(4):1539-1549. 2007). Therefore, the ability of ULMA to induce UCP-1 and 2 in different stages of adipocyte differentiation was checked. We also checked other brown adipose markers such as PGC-1α and PR domain containing 16 (PRDM16). 3T3L-1 mouse pre-adipocyte cells (ATCC, CL-173) maintained in growth medium (DMEM with 4.5 mg/ml glucose, 4.0 mM glutamine, 1 mM sodium pyruvate, 10% FBS and 1× antibiotic-antimycotic solution (all reagents from invitrogen)) were plated in 6 well plates and allowed to reach full confluence. […] After two days of incubation in differentiation medium, this medium was replaced with insulin medium (DMEM, 10% FBS, plus 1.5 μg/ml insulin) and the cells were incubated in insulin medium for 2 days and then the insulin medium was replaced with growth medium and the cells were then cultured for total of 10 days (from day 0). For ULMA treatment, the cells were treated on day 0 (the day on which differentiation medium was added), and the treatment was continued for a total of 10 days. In all cases, medium was replaced with fresh medium containing vehicle (0.1% DMSO) or 10 nM ULMA every day. After 10 days from day 0, cells were washed in cold PBS and RNA was extracted using trizol reagent using standard procedure following which cDNA synthesis was done and transcript expression was determined using QRT-PCR as described above.
For western blot-based determination of UCP-1, UCP-2 and PGC-1α protein level, cells from an identical set of experiment were lysed and western blotted with UCP-1, UCP-2 (Abcam), PGC-1α(Calbiochem), or beta-actin (cell signaling technology; used as a loading control) as described above.

[1] = 10 nM, 10 days of differentiation
[2] = differentiated in presence of ULMA, 10 days

O=C1c2c(cc(O)c([C@@H]3O[C@H](CO)[C@@H](O)[C@H](O)[C@H]3O)c2O)O[C@@H](c2ccc(O)c(O)c2)[C@@H]1O [ULMA, (2S,3S)-(+)-3′,4′,5,7-tetrahydroxydihydroflavonol-6-C-β-D-glucopyranoside]
PGC-1α mRNA level [1]: significant increase
PRDM16 mRNA level [1]: significant increase
UCP-1 mRNA level [1]: significant increase
UCP-2 mRNA level [1]: significant increase
PGC-1α protein level [2]: elevated
UCPs protein level [2]: elevated

Reference: patent US20160193240A1, “Ulmoside-A: Useful For Prevention Or Cure Of Metabolic Diseases” (COUNCIL OF SCIENTIFIC & INDUSTRIAL RESEARCH, priority 2013, published 2016)
